A word on the Dmax: it is the largest share of the target that was removed. Higher therefore signals deep degradation. As a reminder, the DC50 is the concentration at which degradation of the target reaches its halfway point. Low readings indicate degradation at low concentration, high ones degradation only at high concentration. By IC50 is commonly meant the concentration that inhibits the measured activity by half.

Here are results for 15 molecules from PMC12592173, “Targeted degradation of EGFR 19Del by PROTACs suppresses tumor growth in non-small-cell lung cancer” (Frontiers in Pharmacology, 2025).

Several values for one entry are separate records, joined by “and”; a condition that tells them apart may be missing. Equal values may be shown once. Where a SMILES comes first, the peptide text is derived from it. The star is where a group is joined. Cbz = O=C(OCc1ccccc1)*

In one test the target is EGFR^Del19 (Homo sapiens, UniProt P00533+Q96SW2, DEL746-750). The test can be described thus: Western blot of EGFR degradation in HCC827 cells. Format: cell-based. The arrangement: host or cells: HCC827. To be noted: for Degradation activity, in words: HCC827 (EGFR^Del19) cells; for EGFR degradation (%): HCC827, 24 h, average of two independent experiments, NA = not active; for Effect of inhibitor pretreatment on EGFR^Del19 degradation induced by compound 14 / Rescue of EGFR^Del19 reduction induced by compound 12 or 14 (competition): HCC827; for Effect of inhibitor pretreatment on EGFR^Del19 degradation induced by compound 14: 2 μM MG132 or 5 μM MLN4924 for 2 h, then 10 nM of 14 for 8 h; for Rescue of EGFR^Del19 reduction induced by compound 12 or 14 (competition): 2 h pretreatment, 10 nM degrader 4 h. On the procedure:
HCC827 and H1975 cell lines were purchased from ATCC (United States) and cultured according to the manuals. Cells were grown in monolayers in appropriate media supplemented with 10% fetal bovine serum and 1% antibiotic/antimycotic solution.
(§1) Cells at 70%–90% confluence were lysed in RIPA buffer with complete protease inhibitor cocktail (Roche Applied Science, Penzberg, Germany). Lysates were quantified, separated on SDS-PAGE gels, and transferred onto PVDF membranes, followed by the blockade with 5% milk in TBS+ 0.1% Tween-20 buffer for 1 h at room temperature. The following primary antibodies were used: anti-EGFR (1:50000, ABclonal Technology, Wuhan, China), anti-pEGFR (Tyr1068, […], Cell Signaling Technology, MA, United States), anti-AKT (1:10000, ABclonal Technology, Wuhan, China), anti-pAKT (1:10000, ABclonal Technology, Wuhan, China), and anti-β-actin (1:10000, ABclonal Technology, Wuhan, China). Protein bands were detected using Tanon High-signal ECL Western Blotting Substrate (Tanon Science and Technology Co., Ltd., Shanghai, China). The band density of the protein of interest was quantified using ImageJ.
(Immunoblotting shows a protein as a band on a membrane.)

In another test the test system is pEGFR and pAKT. Nature of the test: Western blot of downstream signaling in HCC827 cells. Format: cell-based, human. On the procedure: as §1
Another test concerns H1299 cells. Nature of the test: Cell viability (CCK-8) in H1299 cells. The following applies: up to 1 μM, 96 h. Format: cell-based. As to the method:
(§2) Cells (5 × 10^3 for 48 h or 1 × 10^3 for 96 h) were seeded in 96-well plates, allowed to attach overnight, and then incubated with various concentrations of compounds for 48 h or 96 h. The viability of cells was determined using Cell Counting Kit-8 (CCK-8; Dojindo), and IC50 was calculated using GraphPad Prism (version 6.0). For colony formation assays, cells (1 × 10^3 cells/well) seeded in 24-well plates were treated with different concentrations of compounds and replaced with fresh media with compounds every 4 days. After 7 days, the cells were washed with PBS, fixed with methanol, and stained with 0.1% crystal violet solution.

A further test has as its target T1, EGFR^L858R/T790M protein (Homo sapiens, UniProt P00533, L858R/T790M).
T1 construct: nor the EGFR^L858R/T790M protein in the H1975 cell line, up to 1 μM; host or cells: H1975
The test can be described thus: Immunoblots of EGFR in H1975 cells. Format: cell-based. To be noted: H1975 cell line, up to 1 μM, 24 h. On the procedure:
as §1

In another test the test system is HCC827 cells. Nature of the test: Cell viability (CCK-8) in HCC827 cells. Format: cell-based, human. The following applies: for IC50: Homo sapiens, CCK-8. As to the method: The viability of cells was determined using Cell Counting Kit-8 (CCK-8; Dojindo), and IC50 was calculated using GraphPad Prism (version 6.0). For colony formation assays, cells (1 × 10^3 cells/well) seeded in 24-well plates were treated with different concentrations of compounds and replaced with fresh media with compounds every 4 days. After 7 days, the cells were washed with PBS, fixed with methanol, and stained with 0.1% crystal violet solution.

A further test relates to HeLa cells. Nature of the test: Cell viability (CCK-8) in HeLa cells. The following applies: up to 1 μM, 96 h. The test is classed as cell-based. On the procedure:
as §2

The test system of a further test is H1975 cells. The test can be described thus: Cell viability (CCK-8) in H1975 cells. Format: cell-based. To be noted: up to 1 μM, 96 h. On the procedure:
as §2

A further test has as its target EGFR^WT protein (Homo sapiens, UniProt P00533). The test can be described thus: Immunoblots of EGFR in H1299, H460 and HeLa cells. The test is classed as cell-based. To be noted: H1299, H460 and HeLa cell lines, up to 1 μM, 24 h. On the procedure: as §1

On to `O=C1CCC(N2C(=O)c3ccc(OCCCCCOc4cc5ncnc(Nc6ccc(F)c(Cl)c6)c5cc4OCCCN4CCOCC4)cc3C2=O)C(=O)N1` (stereo not drawn) [Compound 1], for which, on EGFR^Del19 (10 nM), the “Degradation activity, in words” value was “no degradation effect” and the “EGFR degradation (%)” value is on record as −6.6 ± 4.2%.

In the case of `O=C1CCC(N2C(=O)c3ccc(OCCCCCCCCOc4cc5ncnc(Nc6ccc(F)c(Cl)c6)c5cc4OCCCN4CCOCC4)cc3C2=O)C(=O)N1` (stereo not drawn) [Compound 2], on EGFR^Del19 (10 nM), the “Degradation activity, in words” value was “weak degradation activities” and the “EGFR degradation (%)” value is 15.3 ± 5.9%.

`O=C1CCC(N2C(=O)c3ccc(OCCCCCCCCCCCOc4cc5ncnc(Nc6ccc(F)c(Cl)c6)c5cc4OCCCN4CCOCC4)cc3C2=O)C(=O)N1` (stereo not drawn) [Compound 3]: at EGFR^Del19 (10 nM), the “Degradation activity, in words” value was “weak degradation activities” and the “EGFR degradation (%)” value is recorded as 7.0 ± 9.3%.

In the case of `O=C1CCC(N2C(=O)c3ccc(N4CCN(C(=O)CCCCCCCOc5cc6ncnc(Nc7ccc(F)c(Cl)c7)c6cc5OCCCN5CCOCC5)CC4)cc3C2=O)C(=O)N1` (stereo not drawn) [Compound 6], the “EGFR degradation (%)” value on EGFR^Del19 (10 nM) is given as 15.0 ± 4.0%.

Take `O=C1CCC(N2C(=O)c3ccc(N4CCN(CCCCCCCCCCOc5cc6ncnc(Nc7ccc(F)c(Cl)c7)c6cc5OCCCN5CCOCC5)CC4)cc3C2=O)C(=O)N1` (stereo not drawn) [Compound 7]: the “EGFR degradation (%)” value on EGFR^Del19 (10 nM) was found to be 19.4 ± 15.1%.

For `O=C1CCC(N2C(=O)c3ccc(N4CCN(CCCC(=O)N5CCN(CCCOc6cc7ncnc(Nc8ccc(F)c(Cl)c8)c7cc6OCCCN6CCOCC6)CC5)CC4)cc3C2=O)C(=O)N1` (stereo not drawn) [Compound 9], on EGFR^Del19 (10 nM), the “EGFR degradation (%)” value is 66.3 ± 22.7%.

Consider `O=C1CCC(N2C(=O)c3ccc(N4CCN(CCCCN5CCN(CCCOc6cc7ncnc(Nc8ccc(F)c(Cl)c8)c7cc6OCCCN6CCOCC6)CC5)CC4)cc3C2=O)C(=O)N1` (stereo not drawn) [Compound 10], for which the “EGFR degradation (%)” value at EGFR^Del19 (10 nM) was found to be 32.4 ± 17.1%.

For `O=C1CCC(N2C(=O)c3ccc(N4CCN(CCN5CCN(CCOc6cc7ncnc(Nc8ccc(F)c(Cl)c8)c7cc6OCCCN6CCOCC6)CC5)CC4)cc3C2=O)C(=O)N1` (stereo not drawn) [Compound 11], the “EGFR degradation (%)” value at EGFR^Del19 (10 nM) is on record as 25.1 ± 11.2%.

Take `O=C1CCC(N2C(=O)c3ccc(N4CCN(CCN5CCN(CCCOc6cc7ncnc(Nc8ccc(F)c(Cl)c8)c7cc6OCCCN6CCOCC6)CC5)CC4)cc3C2=O)C(=O)N1` (stereo not drawn) [Compound 12]: the “EGFR degradation (%)” value on EGFR^Del19 (10 nM) is 60.0% ± 6.9% and 60.0 ± 6.9%. Also, the “Earliest time at which EGFR^Del19 degradation observed” value on EGFR^Del19 (HCC827 cells, 10 nM) is on record as 2 h. Besides, on EGFR^Del19 (HCC827 cells, 24 h, dose-response), the Dmax was determined as 85.1%. Moreover, the DC50 on EGFR^Del19 (HCC827 cells, 24 h treatment) came out at 1.94 nM. Moreover, in the test with pEGFR and pAKT, the “Levels of pEGFR and pAKT” value is “markedly reduced”. In addition, the Effect on viability result in the test with H1299 cells, in the test on HeLa cells and in the test on H1975 cells was “did not affect the viability” in each case. Besides, the “Degradation of EGFR^L858R/T790M protein” value at EGFR^L858R/T790M protein was “neither compound degraded”. Also, the IC50 in the test on HCC827 cells (HCC827, 48 h, HCC827, 48 h incubation) was about 30.7 nM; in the test on HCC827 cells (HCC827, 96 h, HCC827, 96 h incubation), about 25.6 nM. Besides, on EGFR^WT protein, the “Degradation of EGFR^WT protein” value is “neither compound degraded”.

Turning to `O=C1CCC(N2C(=O)c3ccc(N4CCN(CCCN5CCN(CCOc6cc7ncnc(Nc8ccc(F)c(Cl)c8)c7cc6OCCCN6CCOCC6)CC5)CC4)cc3C2=O)C(=O)N1` (stereo not drawn) [Compound 13], the “EGFR degradation (%)” value on EGFR^Del19 (10 nM) is given as 16.8 ± 10.5%.

As for `COc1cc2c(Nc3ccc(F)c(Cl)c3)ncnc2cc1OCCCN1CCN(CCN2CCN(c3ccc4c(c3)C(=O)N(C3CCC(=O)N(C)C3=O)C4=O)CC2)CC1` (stereo not drawn) [Compound 15], the “Degradation activity, in words” value at EGFR^Del19 (10 nM) is reported as “completely lost its degradation ability”.

For `CC(C)C[C@@H](C=O)NC(=O)[C@H](CC(C)C)NC(=O)[C@H](CC(C)C)NC(=O)OCc1ccccc1` [MG132, reference compound] (Cbz-Leu-Leu-Leu-aldehyde), on EGFR^Del19, the “Effect of inhibitor pretreatment on EGFR^Del19 degradation induced by compound 14” value is listed as “restored”.

In the case of `NS(=O)(=O)OC[C@@H]1C[C@@H](n2ccc3c(N[C@H]4CCc5ccccc54)ncnc32)C[C@@H]1O` [MLN4924, reference compound], the “Effect of inhibitor pretreatment on EGFR^Del19 degradation induced by compound 14” value at EGFR^Del19 was “restored”.

Take `COc1cc2ncnc(Nc3ccc(F)c(Cl)c3)c2cc1OCCCN1CCOCC1` [gefitinib, reference compound]: the Effect on viability entry with H1299 cells, in the test with HeLa cells and with H1975 cells was “did not affect the viability” throughout.

In the case of `O=C1CCC(N2C(=O)c3ccccc3C2=O)C(=O)N1` (stereo not drawn) [thalidomide, reference compound], the results for the “Rescue of EGFR^Del19 reduction induced by compound 12 or 14 (competition)” value at EGFR^Del19 (100 times the degrader dose (1 μM)) and at EGFR^Del19 (500 times the degrader dose (5 μM)) were “slight decrease in EGFR^Del19 was still observed” and “completely rescue”, respectively. The “Influence on viability of HCC827 cells” value with HCC827 cells (up to 200 nM) is “no influence”.
